Measured values published in paper PMC7395068, “The evolution of strategies to minimise the risk of human drug-induced liver injury (DILI) in drug discovery and development” (Archives of Toxicology, 2020).
Read-outs that look alike come from different tables or passages of the source.

What was measured:
human hepatocytes = settings: cited from earlier work
hLiMTs [1] = assay: Combined HCI (HCS) and cellular ATP 3D assay in hLiMTs; settings: for DILI prediction hLiMTs (HCS-MEC): Microtissue model structural based (HCI), combined HCS and ATP, MEC < 25 × Cmax.tot cut-off; for hLiMTs <25x Avg Cmax ATP / hLiMTs <100x Avg Cmaxu ATP: ATP endpoint; for hLiMTs <25x Avg Cmax ATP / hLiMTs <25x Avg Cmax HCS / hLiMTs <25x Avg Cmax All: cut-off <25x Avg Cmax; for hLiMTs <100x Avg Cmaxu ATP / hLiMTs <100x Avg Cmaxu HCS / hLiMTs <100x Avg Cmaxu All: cut-off <100x Avg Cmaxu; for hLiMTs <25x Avg Cmax HCS / hLiMTs <100x Avg Cmaxu HCS: HCS endpoints; for hLiMTs <25x Avg Cmax All: all endpoints (ATP and HCS); for hLiMTs Cmax max All / hLiMTs Cmax min All / hLiMTs <10 uM All / hLiMTs <100x Avg Cmaxu All: all endpoints; for hLiMTs Cmax max All: Cmax max used; for hLiMTs Cmax min All: Cmax min used; for hLiMTs <10 uM All: cut-off <10 uM
[2] = Plasma free fraction (fu) and unbound Cmax (Cmax,u); type: in vitro ADME, human; settings: unbound plasma Cmax
Experimental: The prediction of DILI severity was evaluated further using the 3D combined HCI assays using plasma-free fraction. The majority of fu values were obtained from literature, when unavailable in-house prediction was utilised. Unbound plasma Cmax concentrations (Cmax,u) were derived by multiplying total plasma Cmax with the corresponding free fraction (fu) for each compound.

HepaRG spheroids = assay: Combined HCI (HCS) and cellular ATP 3D assay in HepaRG spheroids; settings: for HepaRG <25x Avg Cmax ATP / HepaRG <100x Avg Cmaxu ATP: ATP endpoint; for HepaRG <25x Avg Cmax ATP / HepaRG <25x Avg Cmax HCS / HepaRG <25x Avg Cmax All: cut-off <25x Avg Cmax; for HepaRG <100x Avg Cmaxu ATP / HepaRG <100x Avg Cmaxu HCS / HepaRG <100x Avg Cmaxu All: cut-off <100x Avg Cmaxu; for HepaRG <25x Avg Cmax HCS / HepaRG <100x Avg Cmaxu HCS: HCS endpoints; for HepaRG <25x Avg Cmax All: all endpoints (ATP and HCS); for HepaRG Cmax max All / HepaRG Cmax min All / HepaRG <10 uM All / HepaRG <100x Avg Cmaxu All: all endpoints; for HepaRG Cmax max All: Cmax max used; for HepaRG Cmax min All: Cmax min used; for HepaRG <10 uM All: cut-off <10 uM; for AC50 / minimal effective concentration: Homo sapiens; for HepaRG <25x Avg Cmax ATP / HepaRG <100x Avg Cmaxu ATP / HepaRG <25x Avg Cmax HCS / HepaRG <100x Avg Cmaxu HCS / HepaRG <25x Avg Cmax All / HepaRG Cmax max All / HepaRG Cmax min All / HepaRG <10 uM All / HepaRG <100x Avg Cmaxu All / AC50 / minimal effective concentration: HepaRG; for DILI prediction HepaRG spheroids (HCS-MEC): Microtissue model structural based (HCI), combined HCS and ATP, MEC < 25 × Cmax.tot cut-off
[3] = read-out: Human plasma Cmax; total plasma Cmax.tot, median of 9 literature references; cited from earlier work
[4] = plasma free fraction; cited from earlier work
[5] = test system: isolated mouse liver mitochondria; settings: In vitro Assay; ref Porceddu 2012; cited from earlier work
[6] = test system: THLE or HepG2 cells, isolated mitochondria, BSEP; settings: cited from earlier work
PHH = settings: cited from earlier work
[7] = test system: HepG2 C3A spheroid, BSEP, Glu/Gal in HepG2 cells, bioactivation; settings: cited from earlier work
hLiMTs [8] = settings: cited from earlier work
PHH spheroids = settings: cited from earlier work
[9] = in vivo; cited from earlier work
[10] = in vivo; cited from earlier work; remark: listed apart in the source

CC[C@H]1OC(=O)[C@H](C)[C@@H](O[C@H]2C[C@@](C)(OC)[C@@H](O)[C@H](C)O2)[C@H](C)[C@@H](O[C@@H]2O[C@H](C)C[C@H](N(C)C)[C@H]2O)[C@](C)(O)C[C@@H](C)C(=O)[C@H](C)[C@@H](O)[C@]1(C)O [erythromycin]
Structural based (HCI) (human hepatocytes; In vitro Assay, ref Xu 2008): -VE
DILI in vitro assay prediction, Xu (2008) (human hepatocytes; Structural based (HCI), human hepatocytes, ref Xu et al. 2008): -VE
DILI prediction hLiMTs (HCS-MEC) (hLiMTs [1]): -VE
hLiMTs <25x Avg Cmax ATP (hLiMTs [1]): -ve
hLiMTs <100x Avg Cmaxu ATP (hLiMTs [1]): -ve
hLiMTs <25x Avg Cmax HCS (hLiMTs [1]): -ve
hLiMTs <100x Avg Cmaxu HCS (hLiMTs [1]): -ve
hLiMTs <25x Avg Cmax All (hLiMTs [1]): -ve
hLiMTs Cmax max All (hLiMTs [1]): -ve
hLiMTs Cmax min All (hLiMTs [1]): -ve
hLiMTs <10 uM All (hLiMTs [1]): -ve
hLiMTs <100x Avg Cmaxu All (hLiMTs [1]): -ve
Human plasma Cmax,u [2]: 0.620 µM
HepaRG <25x Avg Cmax ATP (HepaRG spheroids): +ve
HepaRG <100x Avg Cmaxu ATP (HepaRG spheroids): -ve
HepaRG <25x Avg Cmax HCS (HepaRG spheroids): +ve
HepaRG <100x Avg Cmaxu HCS (HepaRG spheroids): +ve (<100x Avg Cmaxu)
HepaRG <25x Avg Cmax All (HepaRG spheroids): +ve
HepaRG Cmax max All (HepaRG spheroids): +ve
HepaRG Cmax min All (HepaRG spheroids): +ve
HepaRG <10 uM All (HepaRG spheroids): -ve
HepaRG <100x Avg Cmaxu All (HepaRG spheroids): +ve (<100x Avg Cmaxu)
AC50 (HepaRG spheroids; read-out: ATP endpoint AC50): 214 µM
minimal effective concentration (HepaRG spheroids; read-out: ATP endpoint MEC): 128 µM
AC50 (HepaRG spheroids; read-out: HCS endpoint AC50): 294 µM
minimal effective concentration (HepaRG spheroids; read-out: HCS endpoint MEC): 38.1 µM
DILI prediction HepaRG spheroids (HCS-MEC) (HepaRG spheroids): +VE (MEC < 25 × Cmax.tot cut-off)
Cmax [3]: 6.2 µM
fu [4]: 0.100
in vitro data EC2<=1x Cmax [5]: +VE

CCN(CC)CC#CCOC(=O)C(O)(c1ccccc1)C1CCCCC1 (stereo not shown) [oxybutynin]
DILI in vitro assay prediction, Xu (2008) (human hepatocytes): -VE
Structural based (HCI) (human hepatocytes): -VE
AC50 (hLiMTs [1]; Homo sapiens, read-out: HCS endpoint AC50): 6.06 µM
minimal effective concentration (hLiMTs [1]; Homo sapiens, read-out: HCS endpoint MEC): 2.11 µM
DILI prediction hLiMTs (HCS-MEC) (hLiMTs [1]): -VE
hLiMTs <25x Avg Cmax ATP (hLiMTs [1]): -ve
hLiMTs <100x Avg Cmaxu ATP (hLiMTs [1]): -ve
hLiMTs <25x Avg Cmax HCS (hLiMTs [1]): -ve
hLiMTs <100x Avg Cmaxu HCS (hLiMTs [1]): -ve
hLiMTs <25x Avg Cmax All (hLiMTs [1]): -ve
hLiMTs Cmax max All (hLiMTs [1]): -ve
hLiMTs Cmax min All (hLiMTs [1]): -ve
hLiMTs <10 uM All (hLiMTs [1]): +ve (<10 uM)
hLiMTs <100x Avg Cmaxu All (hLiMTs [1]): -ve
Rule of Two hybrid HRM Score ≥8, Aleo (2019) [6]: -VE
Human plasma Cmax,u [2]: 0.001 µM
HepaRG <25x Avg Cmax ATP (HepaRG spheroids): -ve
HepaRG <100x Avg Cmaxu ATP (HepaRG spheroids): -ve
HepaRG <25x Avg Cmax HCS (HepaRG spheroids): -ve
HepaRG <100x Avg Cmaxu HCS (HepaRG spheroids): -ve
HepaRG <25x Avg Cmax All (HepaRG spheroids): -ve
HepaRG Cmax max All (HepaRG spheroids): -ve
HepaRG Cmax min All (HepaRG spheroids): -ve
HepaRG <10 uM All (HepaRG spheroids): -ve
HepaRG <100x Avg Cmaxu All (HepaRG spheroids): -ve
AC50 (HepaRG spheroids; read-out: ATP endpoint AC50): 28.5 µM
minimal effective concentration (HepaRG spheroids; read-out: ATP endpoint MEC): 16.1 µM
AC50 (HepaRG spheroids; read-out: HCS endpoint AC50): 64.5 µM
minimal effective concentration (HepaRG spheroids; read-out: HCS endpoint MEC): 10.3 µM
DILI prediction HepaRG spheroids (HCS-MEC) (HepaRG spheroids): -VE
PHH ATP <100uM (PHH): -VE
PHH/100uM, Proctor (2017) (PHH): -VE
Bayesian Machine Learning DILI prediction, Williams (2019) [7]: -VE
hLiMTs ATP <100uM (hLiMTs [8]): -VE
hLiMTs/100uM, Proctor (2017) (hLiMTs [8]): -VE
hLiMTs ATP <20 x Cmax (PHH spheroids; In vitro Assay, ref Vorrink 2018): -VE
DILI in vitro assay prediction, Vorrink (2018) (PHH spheroids): -VE
DILI +VE (5-8), DILI -VE (-4) [9]: -VE
DILI severity category (Chen et al. [2016]) [9]: No
fu [4]: 0.030
Assigned DILI category [10]: 1
In vivo DILI [10]: -VE
in vitro data EC2<=1x Cmax [5]: -VE
